Data on eight compounds can be found in ChEMBL document CHEMBL1201862, “PubChem BioAssay data set” (2004).

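Tested at 5 concentrations; 48 h exposure; 96-well plates; endpoints linearly interpolated, else capped at highest concentration. At the GI50, growth is halved.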 Activity calls are given as the source filed them. No stated cut-off is given here; in the data, active = GI50 up to about 1.1 µM and inactive = higher. Some results are limits rather than exact numbers.

Among the test systems are U-251; HCC 2998; SNB-19; MDA-MB-435; KM12; SN12C; HOP-62; A549; SK-MEL-5; SF-295; MDA-N; EKVX; HCT-15; SK-MEL-28; CAKI-1; Malme-3M; SNB-75; NCI-H226; SK-OV-3.
Holding throughout (experiment): NCI anticancer screen, dose series, 48 h

Consider `CN1CC[C@]2(c3cccc(O)c3)CC(=O)/C(=C/c3ccccc3)[C@@H]1C2.[O-][Cl+3]([O-])([O-])O`, for which the GI50 was 2.54 µM (inactive) in the test on U-251; 2.59 µM (inactive) in the test on HCC 2998; 5.4 µM (inactive) in the test on SNB-19; 1.72 µM (inactive) in the test with MDA-MB-435; 3.61 µM (inactive) in the test on KM12; 2.99 µM (inactive) with SN12C. Besides, the GI50 is 3.88 µM (inactive) with HOP-62; 3.42 µM (inactive) in the test with A549; 3.12 µM (inactive) in the test with SK-MEL-5; 3.24 µM (inactive) in the test on SF-295; 1.58 µM (inactive) in the test with MDA-N; 6.92 µM (inactive) with EKVX. The GI50 in the test with HCT-15 is 1.66 µM; in the test with SK-MEL-28 it was 3.06 µM (inactive); in the test on CAKI-1 it was 2.29 µM (inactive); in the test with Malme-3M, 2.64 µM (inactive); in the test with SNB-75 it was 2 µM (inactive); with NCI-H226, 15 µM (inactive).

For `CC(C)OC1OC(CO)C(O)CC1n1cc(F)c(=O)[nH]c1=O` (stereo not given), the GI50 was 66.8 µM (inactive) in the test with U-251; > 100 µM (inactive) in the test on HCC 2998; > 100 µM (inactive) with SNB-19; > 100 µM (inactive) with MDA-MB-435; > 100 µM (inactive) with KM12; > 100 µM (inactive) in the test with SN12C. For the same compound, the GI50 in the test on A549 is > 100 µM (inactive); with SK-MEL-5, > 100 µM (inactive); in the test with SF-295, > 100 µM (inactive); in the test with MDA-N it was > 100 µM (inactive); in the test with EKVX it was > 100 µM (inactive); with HCT-15, greater than 100 µM. Also, the GI50 was > 100 µM (inactive) with SK-MEL-28; 24.6 µM (inactive) in the test with CAKI-1; 86.1 µM (inactive) in the test with Malme-3M; > 100 µM (inactive) in the test on SNB-75; > 100 µM (inactive) with NCI-H226.

On to `COc1ccc(Nc2nc3ccccc3nc2-c2cccs2)cc1OC`, for which the GI50 with U-251, in the test with HCC 2998, in the test on SNB-19, in the test on MDA-MB-435, with KM12 and in the test with SN12C was > 10 µM (inactive) throughout. Also, the GI50 in the test on HOP-62, with A549, in the test on SK-MEL-5, in the test with SF-295, with SK-OV-3 and in the test with MDA-N was > 10 µM (inactive) in each case. Moreover, the GI50 is > 10 µM (inactive) in the test on EKVX; greater than 10 µM in the test on HCT-15; > 10 µM (inactive) in the test with SK-MEL-28; > 10 µM (inactive) with CAKI-1; > 10 µM (inactive) in the test with SNB-75; > 10 µM (inactive) in the test with NCI-H226.

Regarding `CCOC(=O)c1nnsc1NC(=O)Nc1ccc(Cl)cc1`, the GI50 was > 100 µM (inactive) in the test on U-251; 38.5 µM (inactive) in the test with HCC 2998; > 100 µM (inactive) in the test with SNB-19; > 100 µM (inactive) in the test with MDA-MB-435; 51.6 µM (inactive) in the test with KM12; 35.2 µM (inactive) with SN12C. Besides, the GI50 with HOP-62 is 68.9 µM (inactive); in the test with A549, 43 µM (inactive); with SK-MEL-5 it was > 100 µM (inactive); in the test on MDA-N, 32.8 µM (inactive); with EKVX, 42 µM (inactive); in the test with HCT-15, 61.9 µM. The GI50 is > 100 µM (inactive) in the test on SK-MEL-28, 75.5 µM (inactive) with Malme-3M, 21.1 µM (inactive) with SNB-75 and 36.6 µM (inactive) in the test with NCI-H226.

In the case of `CCOc1ccccc1/N=N/C1C(=O)N(C(=O)CC(=O)Nc2ccccc2Cl)N=C1C` (stereo not given), the GI50 in the test on U-251 is 42.7 µM (inactive); in the test with HCC 2998, > 100 µM (inactive); in the test with MDA-MB-435 it was > 100 µM (inactive); with KM12, > 100 µM (inactive); in the test with SN12C, > 100 µM (inactive); with HOP-62, 27.9 µM (inactive). In addition, the GI50 is > 100 µM (inactive) in the test with A549; > 100 µM (inactive) with SK-MEL-5; 37.6 µM (inactive) with SF-295; 26.9 µM (inactive) in the test on SK-OV-3; > 100 µM (inactive) in the test on MDA-N; 3.86 µM (inactive) in the test on EKVX. The GI50 in the test with HCT-15 was 26.9 µM; in the test with SK-MEL-28, > 100 µM (inactive); in the test on CAKI-1 it was > 100 µM (inactive); with Malme-3M, > 100 µM (inactive); in the test with SNB-75, 42.2 µM (inactive); in the test on NCI-H226, > 100 µM (inactive).

Regarding `CC1(C)OCC(C2OC(N3O[C@H](CI)C[C@@H]3c3ccccc3)C3OC(C)(C)OC23)O1` (stereo not given in full), the GI50 in the test with U-251, with HCC 2998, with SNB-19, with MDA-MB-435, in the test with KM12 and in the test with SN12C was > 100 µM (inactive) in each case. Further, the GI50 in the test with HOP-62 is > 100 µM (inactive); in the test on A549, > 100 µM (inactive); in the test with SK-MEL-5 it was 48.8 µM (inactive); in the test on SF-295, > 100 µM (inactive); in the test on SK-OV-3 it was > 100 µM (inactive); with MDA-N, > 100 µM (inactive). The GI50 with EKVX is > 100 µM (inactive); in the test with HCT-15, greater than 100 µM; with SK-MEL-28, > 100 µM (inactive); in the test with CAKI-1, > 100 µM (inactive); in the test on Malme-3M, > 100 µM (inactive); in the test with SNB-75 it was > 100 µM (inactive).

Turning to `CC(=O)NCc1nc(C#N)c(N)o1`, the GI50 in the test with U-251, in the test on HCC 2998, in the test with SNB-19, in the test on MDA-MB-435, in the test on KM12 and with SN12C was > 100 µM (inactive) throughout. Further, the GI50 with HOP-62, with A549, in the test with SF-295, with SK-OV-3, in the test on MDA-N and in the test on EKVX was > 100 µM (inactive) each time. Moreover, the GI50 in the test on HCT-15 was greater than 100 µM; in the test on SK-MEL-28, > 100 µM (inactive); in the test with CAKI-1, > 100 µM (inactive); with Malme-3M, > 100 µM (inactive); in the test on SNB-75, > 100 µM (inactive); in the test with NCI-H226 it was > 100 µM (inactive).

In the case of `COc1ccc(/N=N/c2ccc3oc(=O)c(C(=O)Nc4ccccc4C)cc3c2)cc1`, the GI50 in the test on U-251, in the test with HCC 2998, in the test with MDA-MB-435, in the test with KM12, with SN12C and in the test on HOP-62 was > 10 µM (inactive) in each case. Besides, the GI50 was > 10 µM (inactive) with SK-MEL-5; > 10 µM (inactive) in the test with SF-295; > 10 µM (inactive) with SK-OV-3; > 10 µM (inactive) in the test on MDA-N; > 10 µM (inactive) in the test with EKVX; greater than 10 µM with HCT-15. The GI50 is > 10 µM (inactive) with SK-MEL-28; > 10 µM (inactive) with CAKI-1; > 10 µM (inactive) in the test on Malme-3M; 4.69 µM (inactive) with SNB-75; > 10 µM (inactive) in the test on NCI-H226.
